Measured values taken from US6670379B2, “Piperidine compounds for use as ccr-3 inhibitors” (Novartis AG, priority 2000, dated 2003).

Tests used:
[1] = target: T1, human CCR-3 (Homo sapiens, UniProt P51677); assay: CCR-3 Binding Assay (SPA, [125I]-human eotaxin); settings: membranes of RBL-2H3 cells stably expressing CCR3; 50 pM [125I]-human eotaxin; 4 hours at room temperature; read-out: IC50 (inhibition of binding of human eotaxin to human CCR-3)
T1 construct: expressed in transfected cells; host or cells: rat basophil leukemia (RBL-2H3) cells
T1 sequence (P51677 1-355): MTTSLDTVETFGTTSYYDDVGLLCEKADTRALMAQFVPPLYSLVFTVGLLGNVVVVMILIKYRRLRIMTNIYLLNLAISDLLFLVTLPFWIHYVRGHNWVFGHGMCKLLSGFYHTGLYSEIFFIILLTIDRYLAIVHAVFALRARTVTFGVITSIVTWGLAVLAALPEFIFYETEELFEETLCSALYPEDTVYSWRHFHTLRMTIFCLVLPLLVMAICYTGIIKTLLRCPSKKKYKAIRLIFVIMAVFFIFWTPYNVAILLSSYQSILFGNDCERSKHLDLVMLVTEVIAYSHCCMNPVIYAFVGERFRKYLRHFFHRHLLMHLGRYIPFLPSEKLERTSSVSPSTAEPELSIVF
Method: In this assay the effect of agents of the invention on the binding of human eotaxin to human CCR-3 is determined. Recombinant cells expressing human CCR-3 are captured by wheatgerm agglutinin (WGA) polyvinyltoluidene (PVT) SPA beads (available from Amersham), through a specific interaction between the WGA and carbohydrate residues of glycoproteins on the surface of the cells. [^125I]-human eotaxin (available from Amersham) binds specifically to CCR-3 receptors bringing the [^125I]-human eotaxin in close proximity to the SPA beads. Emitted â-particles from the [^125I]-human eotaxin excite, by its proximity, the fluorophore in the beads and produce light.
Preparation of Assay Buffer: 5.96 g HEPES and 7.0 g sodium chloride are dissolved in distilled water and 1M aqueous CaCl2 (1 mL) and 1M aqueous MgCl2 (5 mL) are added. The pH is adjusted to 7.6 with NaOH and the solution made to a final volume of 1 L using distilled water. 5 g bovine serum albumin and 0.1 g sodium azide are then dissolved in the solution and the resulting buffer stored at 4° C. A Complete™ protease inhibitor cocktail tablet (available from Boehringer) is added per 50 mL of the buffer on the day of use.
Preparation of Homogenisation Buffer: Tris-base (2.42 g) is dissolved in distilled water, the pH of the solution is adjusted to 7.6 with hydrochloric acid and the solution is diluted with distilled water to a final volume of 1L. The resulting buffer is stored at 4° C. A Complete™ protease inhibitor cocktail tablet is added per 50 mL of the buffer on the day of use.
Preparation of membranes: Confluent rat basophil leukemia (RBL-2H3) cells stably expressing CCR3 are removed from tissue culture flasks using enzyme-free cell dissociation buffer and resuspended in phosphate-buffered saline. The cells are centrifuged (800 g, 5 minutes), the pellet resuspended in ice-cold homogenisation buffer using 1 mL homogenisation buffer per gram of cells and incubated on ice for 30 minutes. The cells are homogenised on ice with 10 strokes in a glass mortar and pestle. The homogenate is centrifuged (800 g, 5 minutes, 4° C.), the supernatant further centrifuged (48,000 g, 30 minutes, 4° C.) and the pellet redissolved in Homogenisation Buffer containing 10% (v/v) glycerol. The protein content of the membrane preparation is estimated by the method of Bradford (Anal.Biochem. (1976) 72:248) and aliquots are snap frozen and stored at −80° C. The assay is performed in a final volume of 250 μL per well of an Optiplate (ex Canberra Packard). To selected wells of the Optiplate are added 50 μL of solutions of a test compound in Assay Buffer containing 5% DMSO (concentrations from 0.1 nM to 10 μM). To determine total binding, 50 μL of the Assay Buffer containing 5% DMSO is added to other selected wells. To determine non-specific binding, 50 μL of 100 nM human eotaxin (ex R&D Systems) in Assay Buffer containing 5% DMSO is added to further selected wells. To all wells are added 50 μL [^125I]-Human eotaxin (ex Amersham) in Assay Buffer containing 5% DMSO at a concentration of 250 pM (to give a final concentration of 50 pM per well), 50 μL of WGA-PVT SPA beads in Assay Buffer (to give a final concentration of 1.0 mg beads per well) and 100 μL of the membrane preparation at a concentration of 100 μg protein in Assay Buffer (to give a final concentration of 10 μg protein per well). The plate is then incubated for 4 hours at room temperature. The plate is sealed using TopSeal-S (ex Canberra Packard) according to the manufacturer's instructions. The resulting scintillations are counted using a Canberra Packard TopCount, each well being counted for 1 minute. The concentration of test compound at which 50% inhibition occurs (IC50) is determined from concentration-inhibition curves in a conventional manner.

[2] = target: alpha-1 adrenergic receptor; assay: alpha-1 adrenergic receptor radioligand binding assay ([125I]-HEAT, rat cerebral cortex membranes); settings: for IC50: [125I]-HEAT 40 pM, 37° C. for 60 min, read-out: IC50 (inhibition of binding of the alpha-1 adrenergic receptor)
Method: Cerebral cortices from male Sprague-Dawley rats (175-200 g) are dissected and homogenised in 10 volumes of ice cold 0.32 M sucrose (containing 1 mM MgCl2 dihydrate and 1 mM K2HPO4) with a glass/teflon homogeniser. The membranes are centrifuged at 1000×g for 15 min., the pellet discarded and the centrifugation repeated. The supernatants are pooled and centrifuged at 18,000×g for 15 min. The pellet is osmotically shocked in 10 volumes of water and kept on ice for 30 min. The suspension is centrifuged at 39,000×g for 20 min., resuspended in Krebs-Henseleit buffer pH 7.4 (1.17 mM MgSO4 anhydrous, 4.69 mM KCl, 0.7 mM K2HPO4 anhydrous, 0.11M NaCl, 11 mM D-glucose and 25 mM NaHCO3) containing 20 mM Tris, and kept for 2 days at −20° C. The membranes are then thawed at 20-23° C., washed three times with Krebs-Henseleit buffer by centrifugation at 18,000×g for 15 min., left overnight at 4° C. and washed again three times. The final pellet is resuspended with a glass/teflon homogeniser in 125 mL/100 membranes in the same buffer. A sample is taken to determine the protein concentration (using the Bradford Assay with gamma globulin as the standard) and the remainder aliquoted and stored at −80° C.
The resulting membranes are subjected to a radioligand binding assay. […] The plates are incubated at 37° C. for 60 min., after which rapid vacuum filtration over Whatman GF/C 96 well filter plates is carried out. Each plate is then washed three times with 10 ml of ice cold assay buffer using a Brandel Cell harvester (Gaithersburg, Md.). Following drying of the plates for 3 h. at 50° C., 40 μL of Microscint 20 is added to each well, the plates incubated at room temperature for a further 20 min. and the retained radioactivity quantified in a Packard Topcount NXT scintillation counter.
Stock solutions of test compounds are dissolved initially in 100% DMSO and diluted with assay buffer to the required concentrations to yield 1% (v/v) DMSO.

Row | Compound | IC50 [1] [nM] | IC50 [2] [nM] | Kd [2] [nM] | melting point [°C]
1 | N#Cc1cccc(/C=C/C(=O)NCCN2CCC(C(=O)c3ccc(F)cc3)CC2)c1 [Example 1] | 125 | 210 |  | 
2 | N#Cc1cccc(/C=C/C(=O)N[C@H](Cc2ccccc2)CN2CCC(C(=O)c3ccc(F)cc3)CC2)c1 [Example 2, (E)-N-{(R)-1-Benzyl-2-[4-(4-fluoro-benzoyl)-piperidin-1-yl]-ethyl}-3-(3-cyano-phenyl)-acrylamide] | 68 | 221 |  | 
3 | COc1ccc(Br)cc1/C=C/C(=O)N[C@H](CO)CN1CCC(C(=O)c2ccc(F)cc2)CC1 [Example 25] | 11 | 387 |  | 
4 | COc1ccc(Br)cc1/C=C/C(=O)NCCN1CCC(C(=O)c2ccc(F)cc2)CC1 [Example 7] | 15 | 48 |  | 
5 | COc1ccc(Br)cc1/C=C/C(=O)NCCN1CCC(C(=O)c2ccc(Cl)cc2)CC1 [Example 13, (E)-3-(5-Bromo-2-methoxy-phenyl)-N-{2-[4-(4-chloro-benzoyl)-piperidin-1-yl]-ethyl}-acrylamide] | 26 | 53 |  | 
6 | N#Cc1cccc(/C=C/C(=O)N[C@H](Cc2ccco2)CN2CCC(C(=O)c3ccc(F)cc3)CC2)c1 [Example 23] | 10 | 131 |  | 
7 | COc1ccc(C#N)cc1/C=C/C(=O)N[C@H](Cc1ccncc1)CN1CCC(C(=O)c2ccc(F)cc2)CC1 [Example 44] | 25 | 331 |  | 
8 | COc1ccc(C#N)cc1/C=C/C(=O)N[C@H](Cc1ccco1)CN1CCC(C(=O)c2ccc(F)cc2)CC1 [Example 28] | 2 | 72 |  | 
9 | COc1ccc(C#N)cc1/C=C/C(=O)N[C@H](Cc1cnc[nH]1)CN1CCC(C(=O)c2ccc(F)cc2)CC1 [Example 30] | 13 | 121 |  | 
10 | CCOc1ccc(Br)cc1/C=C/C(=O)N[C@H](Cc1ccccc1)CN1CCC(C(=O)c2ccc(F)cc2)CC1 [Example 4] | 13 | 94 |  | 
11 | COc1ccc(Cl)cc1/C=C/C(=O)N[C@H](CO)CN1CCC(C(=O)c2ccc(Cl)cc2)CC1 [Example 40] | 6 | 215 |  | 
12 | COc1ccc(C#N)cc1/C=C/C(=O)N[C@H](CO)CN1CCC(C(=O)c2ccc(Cl)cc2)CC1 [Example 38, (E)-N-{(S)-2-[4-(4-chloro-benzoyl)-piperidin-1-yl]-1-hydroxymethyl-ethyl}-3-(5-cyano-2-methoxy-phenyl)-acrylamide] | 14 | 1520 |  | 
13 | O=C1c2ccccc2CCC1CNCCc1ccc(O)c(I)c1 (centres unmarked) [[^125I]-HEAT, reference compound] |  |  | 0.0589 ± 0.0187 | 
14 | COc1ccc(Br)cc1/C=C/C(=O)N[C@H](Cc1cccnc1)CN1CCC(C(=O)c2ccc(F)cc2)CC1 [Example 9] | 5 | 58 |  | 
15 | CC(C)Oc1ccc(Br)cc1/C=C/C(=O)NCCN1CCC(C(=O)c2ccc(F)cc2)CC1 [Example 20] | 8 | 89 |  | 
16 | COc1ccc(Br)cc1/C=C/C(=O)N[C@H](CO)CN1CCC(C(=O)c2ccc(Cl)cc2)CC1 [Example 43] | 22 | 356 |  | 
17 | COc1ccc(C#N)cc1/C=C/C(=O)N[C@H](CO)CN1CCC(C(=O)c2ccc(Cl)cc2)CC1 [Example 47, (E)-N-{(S)-1-[4-(4-Chloro-benzoyl)-piperidin-1-ylmethyl]-2-hydroxy-ethyl}-3-(5-cyano-2-methoxy-phenyl)-acrylamide] |  |  |  | 162 to 163
